Measured values: US20240002350A1, “PROTEIN AND LIPID THERAPEUTIC TARGETS” (UNIVERSITY OF PITTSBURGH-OF THE COMMONWEALTH SYSTEM OF …, priority 2020, published 2024)
Where two headings read alike, the source gives them in different places.

Key:
15LOX/PEBP1 = assay: Potency of 15LOX/PEBP1 inhibitors with anti-ferroptotic effect (Table 1); assay type: cell-based
From the text: Development and testing of new compounds that inhibit 15LOX/PEBP1 complex activity. A combination of computational and experimental studies are used. […] Computer modeling considers specific features of organization of 15LOX/PEBP1 complexes and positioning of AA-PE as well as regio-specific oxygenation of AA-residues at 15th carbon. […] It has been shown that: i) binding interface of 15LOX in 15LOX/PEBP1 complex includes a helix on 15LOX (α2) and kinase binding epitope (D144, H145, R146) on PEBP1 (FIG. 8); and ii) interfacial interactions play a pivotal role in allosterically altering conformational dynamics of 15LOX in complex, and its substrate specificity. Analysis of change in access to catalytic site upon PEBP1 binding, using elastic network models indicates needed sites at 15LOX/PEBP1 binding interface. Dynamics simulations are also performed, for 15LOX alone and 15LOX/PEBP1 complex. An effective inhibitor, NCG-01, with in vivo activity has been indicated. Several other 15LOX/PEBP1 inhibitors with anti-ferroptotic effect (FIG. 9) have been identified. To test the effectiveness of compounds identified from the computational screen, RSL3 and mechanical stretch models with LDH and PI assays as a primary outcome are performed. The compounds that inhibit cell death by at least 50% are then evaluated for their effects on AA-PE and AA oxidation by 15LOX/PEBP1 complex and 15LOX alone, respectively, by LC-MS. Evaluation of the effect of compounds in suppressing AA-PE-OOH formation in cells upon proferroptotic stimuli is also performed.

[1] = system: ferroptosis triggered by RSL3 (GPX4 inhibition) or Erastin (GSH depletion) in cells; assay: Suppression of ferroptosis triggered by RSL3 or Erastin in cells; assay type: cell-based; conditions: read-out: half maximal activity, suppression of ferroptosis
Procedure: (§1) FIGS. 7A-7C show 15LOX/[…] complex inhibitor, NCGC00599973-01.
FER.1 (500 nM) is positive control. Insert: Chemical formula of two of the compounds.
(§2) It was established that a change in substrate specificity of 15LOX is achieved upon complex formation with PEBP1 whereby structural rearrangements are mainly responsible for the selectivity and specificity leading to the formation of 15-HOO-AA-PE as the oxidation product. Thus, new selective anti-ferroptotic inhibitors of 15LOX/PEBP1 complex were designed. These inhibitors should not interfere with oxidation of free AA, DPA, DHA. […] The compound is a poor inhibitor of 15LOX alone with free AA as a substrate. […] Site 1 is at 15LOX/PEBP1 binding interface (binding energy −10.1 kcal/mol) and site 2 is at catalytic site (binding energy −8.9 kcal/mol).

15LOX alone = assay: Inhibition of 15LOX alone with free AA as a substrate; assay type: biochemical; conditions: 20 μM
From the text: as §2
(§3) Development and testing of new compounds that inhibit 15LOX/PEBP1 complex activity. A combination of computational and experimental studies are used. […] Computer modeling considers specific features of organization of 15LOX/PEBP1 complexes and positioning of AA-PE as well as regio-specific oxygenation of AA-residues at 15th carbon. […] The compounds that inhibit cell death by at least 50% are then evaluated for their effects on AA-PE and AA oxidation by 15LOX/PEBP1 complex and 15LOX alone, respectively, by LC-MS. […]

15LOX/PEBP1 complex = assay: Inhibition of activity of 15LOX/PEBP1 complex; assay type: biochemical
From the text: as §2, §3

HOO-AA-PE = assay: RSL3-induced accumulation of pro-ferroptotic HOO-AA-PE in vitro; assay type: cell-based
From the text: as §1, §2

[2] = system: whole body irradiation (9.25Gy); assay: Survival after whole body irradiation; assay type: in vivo; conditions: oxidant injury induced by ionizing radiation
From the text: as §1, §2

For `Fc1cccc(-n2cc(-c3ccccc3)nc2SCc2ccc(C(F)(F)F)cc2)c1` [Compound 12, 1-(3-fluorophenyl)-4-phenyl-2-((4-(trifluoromethyl)benzyl)thio)-1H-imidazole], the Potency (15LOX/PEBP1) was “++ (++ = 101-1000 nM)”, the EC50 ([1]; ferroptosis triggered by Erastin (GSH depletion) in cells) was 140 nM and the EC50 ([1]; ferroptosis triggered by RSL3 (GPX4 inhibition) in cells) was 175 nM. For the same compound, the “inhibition of 15LOX alone” value (15LOX alone) was roughly 4.5%, the “activity of 15LOX/PEBP1 complex” value (15LOX/PEBP1 complex) was “inhibits activity” and the “RSL3-induced accumulation of pro-ferroptotic HOO-AA-PE” value (HOO-AA-PE) was “suppresses”. The survival [2] was “improves survival”.
